Structures can show the parent of a compound that is named as a salt.
Tested on: human JAK1 (a.a. 837-1142)
Test: In vitro JAK kinase assay (HTRF), JAK1
Assay type: biochemical
Settings: ratio of IC50 values at 1 mM ATP
Protocol: The catalytic activity of JAK1, JAK2 or JAK3 was assayed by measuring the phosphorylation of a biotinylated peptide. The phosphorylated peptide was detected by homogenous time resolved fluorescence (HTRF). […] Reactions were carried out at room temperature for 1 hour and then stopped with 20 μL 45 mM EDTA, 300 nM SA-APC, 6 nM Eu-Py20 in assay buffer (Perkin Elmer, Boston, Mass.). Binding to the Europium labeled antibody took place for 40 minutes and HTRF signal was measured on a Fusion plate reader (Perkin Elmer, Boston, Mass.).

For `C[C@H](NC(=O)c1cc(F)c(N2CC(CC#N)(n3cc(-c4cn[nH]c4)cn3)C2)cc1F)C(F)(F)F` [Example 5, 4-[3-(1H,1′H-4,4′-Bipyrazol-1-yl)-3-(cyanomethyl)azetidin-1-yl]-2,5-difluoro-N-[(1S)-2,2,2-trifluoro-1-methylethyl]benzamide trifluoroacetate], the JAK2/JAK1 was over 10.

`Cc1n[nH]cc1-c1cn(C2(CC#N)CN(c3cnc(C(=O)NC(C)C)cn3)C2)nc1C` [Example 6, 5-[3-(Cyanomethyl)-3-(3,3′-dimethyl-1H,1′H-4,4′-bipyrazol-1-yl)azetidin-1-yl]-N-isopropylpyrazine-2-carboxamide trifluoroacetate] gave a JAK2/JAK1 of over 10.

In the case of `Cc1n[nH]cc1-c1cnn(C2(CC#N)CN(c3cnc(C(=O)NC(C)C)cn3)C2)c1` [Example 2, 5-[3-(Cyanomethyl)-3-(3′-methyl-1H,1′H-4,4′-bipyrazol-1-yl)azetidin-1-yl]-N-isopropylpyrazine-2-carboxamide trifluoroacetate], the JAK2/JAK1 is reported as over 10.

With `Cc1[nH]ncc1-c1cnn(C2(CC#N)CN(c3cnc(C(=O)N[C@@H](C)C(F)(F)F)cn3)C2)c1` [Example 1, 5-[3-(Cyanomethyl)-3-(3′-methyl-1H,1′H-4,4′-bipyrazol-1-yl)azetidin-1-yl]-N-[(1S)-2,2,2-trifluoro-1-methylethyl]pyrazine-2-carboxamide trifluoroacetate] the JAK2/JAK1 was over 10.
